According to EP1199304A1, “Bicyclic compounds and pharmaceutical composition containing tricyclic compound for treating or preventing sleep disorders” (Takeda Chemical Industries, Ltd., priority 1997, dated 1997):

Target: melatonin receptor
Experiment: Inhibition of 2-[125I]iodomelatonin binding (forebrain membrane homogenate)
Design: species or system chicken (white leghorn)
Settings: forebrains of 7-day-old chicken; 80 pM 2-[^125I]iodomelatonin; 90 minutes at 25°C; non-specific binding with 10^-5M melatonin; log-probit analysis; read-out: IC50 (nM), Action of inhibiting 2-[^125I]iodomelatonin binding
Description: Inhibition of 2-[^125I]iodomelatonin binding activity
The forebrains of 7-day-old chicken (white leghorn) were homogenized with ice-cold assay buffer (50 mM Tris-HCl, pH 7.7 at 25°C) and centrifuged at 44,000 x g for 10 minutes at 4°C. The pellet was washed once with the same buffer and storred at -30°C until use. For the assay, the frozen tissue pellet was thawed and homogenized with the assay buffer to make a protein concentration of 0.3 - 0.4 mg/ml. An 0.4 ml aliquot of this homogenate was incubated with a test compound and 80 pM 2-[^125I]iodomelatonin in a total volume of 0.5 ml for 90 minutes at 25°C. The reaction was terminated by adding 3 ml of ice-cold assay buffer immediately followed by vaccum filtration on Whatman GF/B which was further washed twice with 3 ml of ice-cold assay buffer. The radioactivity on the filter was determined by means of γ-counter. […] The 50% inhibiting concentration (IC50) was determined by the log-probit analysis.

Structure (SMILES) | IC50
CCCC(=O)NCCc1c[nH]c2ccc3c(c12)CCCO3 [Example 5, N-[2-(3,7,8,9-tetrahydropyrano[3,2-e]indol-1-yl)ethyl]butyramide] | 0.082 nM
CCC(=O)NCCC1CNc2ccc3c(c21)CCCO3 (stereo not drawn) [Example 7, N-[2-(1,2,3,7,8,9-hexahydropyrano[3,2-e]indol-1-yl)ethyl]propionamide] | 0.46 nM
CCC(=O)NCCc1c[nH]c2ccc3c(c12)CCCO3 [Example 4, N-[2-(3,7,8,9-tetrahydropyrano[3,2-e]indol-1-yl)ethyl]propionamide] | 0.13 nM
CC(=O)NCCC1CCc2ccc3c(c21)CCO3 (stereo not drawn) [Example 1, N-[2-(1,6,7,8-tetrahydro-2H-indeno[5,4-b]furan-8-yl)ethyl]acetamide] | 0.28 nM
CCC(=O)NCCC1CCc2ccc3c(c21)CCO3 (stereo not drawn) [Example 2, N-[2-(1,6,7,8-tetrahydro-2H-indeno[5,4-b]furan-8-yl)ethyl]propionamide] | 0.13 nM
CC(=O)NCCc1c[nH]c2ccc3c(c12)CCCO3 [Example 3, N-[2-(3,7,8,9-tetrahydropyrano[3,2-e]indol-1-yl)ethyl]acetamide] | 0.46 nM
CCCC(=O)NCCC1CNc2ccc3c(c21)CCCO3 (stereo not drawn) [Example 8, N-[2-(1,2,3,7,8,9-hexahydropyrano[3,2-e]indol-1-yl)ethyl]butyramide] | 0.22 nM

Second part, the molecule after the results:

IC50 | Structure (SMILES)
0.1 nM | CCC(=O)NCCC1=CCc2ccc3c(c21)CCO3 [Example 15, N-[2-(1,6-dihydro-2H-indeno[5,4-b]furan-8-yl)-ethyl]propionamide]
0.12 nM | CCCC(=O)NCCC1CCc2ccc3c(c21)CCO3 (stereo not drawn) [Example 13, N-[2-(1,6,7,8-tetrahydro-2H-indeno[5,4-b]furan-8-yl)ethyl]butyramide]
0.048 nM | CCC(=O)NCC[C@@H]1CCc2ccc3c(c21)CCO3 [Example 11, (S)-N-[2-(1,6,7,8-tetrahydro-2H-indeno[5,4-b]-furan-8-yl)ethyl]propionamide]
0.095 nM | CCCC(=O)NCCC1=CCc2ccc3c(c21)CCO3 [Example 16, N-[2-(1,6-dihydro-2H-indeno[5,4-b]furan-8-yl)-ethyl]butyramide]
0.24 nM | CC(=O)NCCC1=CCc2ccc3c(c21)CCO3 [Example 14, N-[2-(1,6-dihydro-2H-indeno[5,4-b]furan-8-yl)ethyl]acetamide]
